Assay results reported in patent publication US20030013684A1, “Agricultural composition” (priority 2001, published 2003).

How the values were obtained:
[1] = Coprecipitation of a chemical substance with a tannin or chelating agent and a metal salt in water; assay type: physicochemical; conditions: (+)-catechin 60 mg and lead acetate 60 mg
Experimental: After stirring for a while, a coprecipitate was formed.
In a similar manner, for the following combinations of a chemical substance and a metal salt, a proportion of the chemical substance taken into a coprecipitate was determined.
Chemical substance: (B) acephate, (C) acetamiprid, (D) urea;
Chelating agent: (Q) sodium ethylenediamine tetraacetate, (R) aminotrimethylenephosphonic acid;
Metal salt: (b) potassium acetate, (c) manganese acetate, (d) aluminum acetate, (e) nickel acetate, (f) cobalt acetate, (g) calcium acetate, (h) magnesium acetate, (i) magnesium chloride and (j) sodium acetate.
After completion of dissolving, the solution was analyzed for dinotefuran. […] After stirring for a while, a coprecipitate was formed. The supernatant was analyzed for dinotefuran A to determine a proportion of dinotefuran taken into the coprecipitate.

[2] = cited from earlier work

SMILES	proportion of dinotefuran taken into the coprecipitate [1] [%]	water solubility [2] [ppm]
CNC(=N[N+](=O)[O-])NCC1CCOC1 (racemic) [dinotefuran, (RS)-1-methyl-2-nitro-3-[(3-tetrahydrofuryl)methyl]guanidine]	41	
COc1nc(NC(C)C)nc(NC(C)C)n1 [promethone]		750
C/C(=N\C#N)N(C)Cc1ccc(Cl)nc1 [acetamiprid]		4200
CCOP(=O)(OCC)O/C(=C\Cl)c1ccc(Cl)cc1Cl [CVP, Chlorfenvin-phos]		1500
CCSCc1ccccc1OC(=O)NC [etiofencarb]		1800
